Test results published in article PMC11952451 (bioRxiv, 2025).
Entries after “also recorded” stand apart in the source; their conditions may differ.

How the values were obtained:
viability = conditions: some effects on DNA damage response and mutagenesis; cited from earlier work
B. subtilis DnaN = target: T1, B. subtilis DnaN (Bacillus subtilis, UniProt P05649); format: binding
T1 sequence (P05649 1-378): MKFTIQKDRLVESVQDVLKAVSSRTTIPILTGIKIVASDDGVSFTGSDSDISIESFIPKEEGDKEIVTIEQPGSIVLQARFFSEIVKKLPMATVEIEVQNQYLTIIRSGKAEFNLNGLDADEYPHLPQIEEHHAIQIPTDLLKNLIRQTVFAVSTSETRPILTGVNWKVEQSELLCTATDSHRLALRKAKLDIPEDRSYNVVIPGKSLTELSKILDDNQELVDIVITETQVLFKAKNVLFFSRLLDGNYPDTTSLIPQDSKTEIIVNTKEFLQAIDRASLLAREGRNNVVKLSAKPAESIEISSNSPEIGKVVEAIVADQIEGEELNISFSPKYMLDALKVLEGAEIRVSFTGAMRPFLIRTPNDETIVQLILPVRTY

E. coli clamp = conditions: cited from earlier work

Substance: QLSLPL [εL]
- effect on viability (viability): no effect on viability

Substance: ATSMAF [εQ]
- effect on viability (viability): no effect on viability

Substance: FAM-Ahx-DDAMGLALDE-NH2
- binding (FP response) (B. subtilis DnaN; pH 7.5): lack of binding; also recorded: deficient in clamp binding in FP assays

Substance: QLSLF
- affinity class in words (B. subtilis DnaN): only micromolar affinity
- affinity class in words (E. coli clamp): submicromolar affinity
